Reference: patent US12534429B2, “Heterodimers of glutamic acid” (Molecular Insight Pharmaceuticals, Inc., priority 2006, dated 2026)
Blank lines part the entries; values can stand above or below the compound they belong to.

Columns and labels:
PSMA (LnCap cells) = PSMA (LnCap cells) (Homo sapiens, UniProt Q04609); test: Scatchard analysis in PSMA cellular binding assay (nonradiolabeled DCIT with I-131 DCIT)
Experimental: FIG. 6 is Scatchard Analysis in PSMA Cellular Binding Assay with cold 2-{3-[1-Carboxy-2-(4-hydroxy-phenyl)-ethyl]-ureido}-pentanedioic acid (DCT).
(§1) (ii) In vitro dose screening. […] Binding constants were determined by incubating LnCap cells with various amounts of nonradiolabeled DCIT in the presence of a constant amount of I-131 DCIT and dividing by the specific activity of each solution to determine the number of fmoles compound bound (FIG. 6).

LnCap cells = test: Direct binding of radiolabeled DCIT to PSMA-positive LnCap cells; parameters: species or system human; details: counts displaceable by nonradiolabeled compound or PMPA
Experimental: (§2) The histograms show the mean f SEM, each experiment was performed in duplicate.
(§3) In vitro cold screening assays verses I-131 DCIT. LNCaP and PC3 human prostate cancer cells were obtained from American Type Culture Collection, Rockville, MD LNCaP cells were maintained in RPMI-1640 medium supplemented with 10% fetal bovine serum (FBS). PC3 cells were grown in F12K medium supplemented with 10% FBS. Binding of the radiolabeled compound and competition with cold derivatives to LNCaP and PC-3 cells was performed according to the methods of Tang et al. (Tang, H.; Brown, M.; Ye, Y.; Huang, G.; Zhang, Y.; Wang, Y.; Zhai, H.; Chen, X.; Shen, T. Y.; Tenniswood, M., Prostate targeting ligands based on N-acetylated alpha-linked acidic dipeptidase, Biochem. Biophys. Res. Commun. 2003, 307, 8-14) with appropriate modifications. […] Total binding was determined by incubating I-131 DCIT without test compound. […] Cell binding of I-131 DCIT was determined by counting the cell pellet in an automated gamma counter. […]
as §1

PC3 cells = test: Direct binding of radiolabeled DCIT to PSMA-negative PC3 cells; parameters: species or system human
Experimental: as §2, §3, §1

[1] = Stability of iodine-131 labeled compounds in solution (HPLC); assay type: physicochemical
Experimental: FIG. 4A-4D are radio-HPLC chromatograms of I-131 MIP 1072 purified; at 3 days in A) DMSO. B) 3% genstisate-6% Ascorbate/Ascorbic acid, C) PBS, pH=7.2, D) 10% Ethanol in Saline at 37° C.
(§4) The stability of the radiolabeled compound in solution was determined as a function of time. Specifically, after radiolabeling and isolation, the product was stored at room temperature for 48 h after which HPLC analysis was performed to check for degree of label retention, as well as potential product degradation. The reformation of NaI and the presence of the reduced iodates was analyzed.
as §4, with “37° C.” for “room temperature”, “3 days” for “48 h”

[2] = Microsome assay (stability in rat liver microsomes); assay type: in vitro ADME; details: 37° C., 60 min incubation; MIP-1072 50 μM, phenacetin 100 μM
Experimental: Pooled male rat liver microsomes (1 mg/mL, BD Biosciences), NADPH regenerating system (1.3 mM NADP, 3.3 mM glucose 6-phosphate and 0.4 U/mL glucose 6-phosphate dehydrogenase, BD Biosciences) and test compound (50 μM MIP-1072, 50 μM DCT, and 100 μM phenacetin) were added to 0.1 M potassium phosphate buffer (pH 7.4) in order to monitor the catastrophic degradation of the test compounds. The mixture was incubated at 37° C. and at the indicated time (0, 15, 60 min) the reaction was stopped by the addition of an equal volume of ice cold methanol (500 μL). The resulting slurry was then centrifuged at 21,000×G for 10 min and the supernatant was collected and injected onto an Agilent LCMS model MSD SL using a 95:5 water:acetonitrile (with 0.1% formic acid) to 40:60 water:acetonitrile (with 0.1% formic acid) gradient and monitoring for the parent ion only in single ion mode. The results, shown in FIGS. 11A and 11B, are expressed as degradation of the parent ion with respect to the 0 min time point.
The stability of MIP-1072 was assessed using rat liver microsomes. MIP-1072 (50 μM) and Phenacetin (100 μM) were incubated with rat liver microsomes at 37° C. for the indicated time. Phenacetin was used as a control substance that is known to be metabolized. MIP-1072 was not degraded by the rat liver microsomes during the incubation period. […]

PSMA on LNCaP cells = target: T1, PSMA on LNCaP cells (Homo sapiens, UniProt Q04609); test: In vitro cell binding: competition with I-131 DCIT for binding to PSMA on LNCaP cells; details: for IC50: LNCaP cells, 3 nM I-131 DCIT, 1 hour, read-out: IC50 (nM), in vitro cell binding data
T1 construct: LNCaP human prostate cancer cells were obtained from American Type Culture Collection; host or cells: LNCaP human prostate cancer cells
Experimental: In vitro cold screening assays verses I-131 DCIT. LNCaP and PC3 human prostate cancer cells were obtained from American Type Culture Collection, Rockville, MD LNCaP cells were maintained in RPMI-1640 medium supplemented with 10% fetal bovine serum (FBS). PC3 cells were grown in F12K medium supplemented with 10% FBS. Binding of the radiolabeled compound and competition with cold derivatives to LNCaP and PC-3 cells was performed according to the methods of Tang et al. (Tang, H.; Brown, M.; Ye, Y.; Huang, G.; Zhang, Y.; Wang, Y.; Zhai, H.; Chen, X.; Shen, T. Y.; Tenniswood, M., Prostate targeting ligands based on N-acetylated alpha-linked acidic dipeptidase, Biochem. Biophys. Res. Commun. 2003, 307, 8-14) with appropriate modifications. Cells were plated in 12-well plates at approximately 4×10^5 cells/well and incubated for 48 hours in a humidified incubator at 37° C./5% carbon dioxide prior to addition of compound. Each unique SAAC-urea-Glu conjugate was prepared and diluted in serum-free cell culture medium containing 0.5% bovine serum albumin (BSA) in combination with 3 nM I-131 DCIT (known inhibitor). Total binding was determined by incubating I-131 DCIT without test compound. Plates were incubated at room temperature for 1 hour. Cells were removed from the plates by gently pipeting and transferred to eppendorff tubes. Samples were microcentrifuged for 15 seconds at 10K×g. The medium was aspirated and the pellet was washed twice by dispersal in fresh assay medium followed by microcentrifugation. Cell binding of I-131 DCIT was determined by counting the cell pellet in an automated gamma counter. […] The control compounds are depicted below.
The ability of non-radioactive analogs to compete with ^131I-DCIT for binding to PSMA was tested in the PSMA positive human prostate cancer cell line, LNCaP cells. LNCaP cells (300,000 cells/well) were incubated for 1 hour with 3 nM [^131I]-DCIT in the presence of 1-10,000 nM MIP-1072 in RPMI-1640 medium supplemented with 0.5% bovine serum albumin, then washed and counted in a gamma counter. All documents cited in this specification including patent applications are incorporated by reference in their entirety.

T1 sequence (Q04609 whole entry): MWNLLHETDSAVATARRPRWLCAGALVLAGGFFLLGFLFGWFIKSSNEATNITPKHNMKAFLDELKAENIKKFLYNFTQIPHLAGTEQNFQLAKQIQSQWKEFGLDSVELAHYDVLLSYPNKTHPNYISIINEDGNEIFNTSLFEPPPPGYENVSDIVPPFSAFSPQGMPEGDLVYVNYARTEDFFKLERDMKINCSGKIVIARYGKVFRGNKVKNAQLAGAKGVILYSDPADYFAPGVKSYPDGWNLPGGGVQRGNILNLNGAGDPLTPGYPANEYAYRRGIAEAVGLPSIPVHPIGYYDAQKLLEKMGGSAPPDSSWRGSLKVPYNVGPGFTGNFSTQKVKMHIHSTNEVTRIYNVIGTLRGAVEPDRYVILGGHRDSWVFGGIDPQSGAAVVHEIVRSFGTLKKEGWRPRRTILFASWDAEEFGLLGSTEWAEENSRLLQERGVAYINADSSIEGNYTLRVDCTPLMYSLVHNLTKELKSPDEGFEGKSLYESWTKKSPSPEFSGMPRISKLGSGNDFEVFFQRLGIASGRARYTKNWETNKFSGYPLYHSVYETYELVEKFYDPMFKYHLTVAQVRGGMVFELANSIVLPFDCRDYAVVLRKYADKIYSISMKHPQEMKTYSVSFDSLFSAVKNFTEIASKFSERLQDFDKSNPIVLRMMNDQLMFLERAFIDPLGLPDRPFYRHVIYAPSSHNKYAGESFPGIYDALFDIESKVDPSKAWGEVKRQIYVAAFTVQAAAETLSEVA
Sequence of PSMA (LnCap cells) (Q04609 whole entry): as above

Compound: O=C(O)CC[C@H](NC(=O)N[C@@H](Cc1ccc(O)c(I)c1)C(=O)O)C(=O)O [DCIT, N—[N—[(S)-1,3-dicarboxypropyl]carbamoyl]-S-3-iodo-L-tyrosine]
Bmax (PSMA (LnCap cells)): 254 fmol
Kd (PSMA (LnCap cells)): 264 nM

Compound: O=C(O)CC[C@H](NC(=O)N[C@@H](Cc1ccc(O)c([123I])c1)C(=O)O)C(=O)O [I-123 DCIT]
specific binding to LnCap cells (LnCap cells): bound specifically
specific binding to PC3 cells (PC3 cells): not PC3 cells

Compound: O=C(O)CC[C@H](NC(=O)N[C@@H](CCCCNCc1ccc([131I])cc1)C(=O)O)C(=O)O [I-131 1072]
stability by radio-HPLC ([1]; 3 days at 37° C. in DMSO, gentisate/ascorbate, PBS pH 7.2, 10% ethanol in saline): remained stable
labeling stability (degradation) ([1]; out to 3 days at room temperature in DMSO, 10% ethanol/saline, PBS pH 7.2, 6% ascorbate/3% gentisic acid): no significant degradation

Compound: O=C(O)CC[C@H](NC(=O)N[C@@H](Cc1ccc(O)c(I)c1)C(=O)O)C(=O)O [I-131 DCIT, N—[N—[(S)-1,3-dicarboxypropyl]carbamoyl]-S-3-iodo-L-tyrosine]
specific binding to LnCap cells (LnCap cells): bound specifically
specific binding to PC3 cells (PC3 cells): not PC3 cells
labeling stability (degradation) ([1]; out to 2 days at room temperature): no significant degradation

degradation of the parent by rat liver microsomes [2]: 22%
Compound: CCOc1ccc(NC(C)=O)cc1 [phenacetin, reference compound]

Compound: [Re(CO)3(2-{3-[5-(Bis-pyridin-2-ylmethyl-amino)-1-carboxy-pentyl]-ureido}-pentanedioic acid)][Br] [MIP 1029]
competition with I-131 DCIT for binding to LnCap cells (PSMA on LNCaP cells): did not compete

IC50 (PSMA on LNCaP cells): 227 nM
Compound: [Re(CO)3{(17R,21S)-11,19-dioxo-1-([…]yridine-2-yl)-2-([…]yridine-2-ylmethyl)-5,8-dioxa-2,12,18,20-tetraazatricosane-17,21,23-tricarboxylic acid}][Br] [MIP-1133]

Compound: [Re(CO)3{(19R,23S)-13,21-dioxo-2-([…]yridine-2-ylmethyl)-2,14,20,22-tetraazapentacosane-1,19,23,25-tetracarboxylic acid}] [MIP-1109]
IC50 (PSMA on LNCaP cells): 696 nM

IC50 (PSMA on LNCaP cells): 1750 nM
Compound: [Re(CO)3{(35R,39S)-29,37-dioxo-1-([…]yridine-2-yl)-2-([…]yridine-2-ylmethyl)-5,8,11,14,17,20,23,26-octaoxa-2,30,36,38-tetraazahentetracontane-35,39,41-tricarboxylic acid}][Br] [MIP-1132]
